Reference: patent publication US20160090556A1, “PRODUCTS COMPRISING MALODOR REDUCTION MATERIALS” (The Procter & Gamble Company, priority 2014, published 2016)
Like-named read-outs stand apart in the source and are kept apart here.

Assay: Liquid dish neat product liquid-air partition coefficient
Assay type: physicochemical
Conditions: for Comment Code: Log of liquid dish neat product liquid-air partition coefficient: code letters K, L
[1] = class code letter within Comment Code

## CCC(=O)OC1CC2CCC1(C)C2(C)C (stereo not shown) [Material 228]
[1]
  Log of liquid dish neat product liquid-air partition coefficient (Comment Code K/L): K (Log of liquid dish neat product liquid-air partition coefficient greater than or equal to −7)

## COC1(OC)CCCCCCCCCCC1 [Material 10]
[1]
  Log of liquid dish neat product liquid-air partition coefficient (Comment Code K/L): K (Log of liquid dish neat product liquid-air partition coefficient greater than or equal to −7)

## CCCCCCCCCCCC#N [Material 498]
[1]
  Log of liquid dish neat product liquid-air partition coefficient (Comment Code K/L): K (Log of liquid dish neat product liquid-air partition coefficient greater than or equal to −7)

## C=C(C=O)C(C)CCC=C(C)C (stereo not shown) [Material 819]
  Comment Code: Log of liquid dish neat product liquid-air partition coefficient: K (Log of liquid dish neat product liquid-air partition coefficient greater than or equal to −7)

## C=CC(=C)CCC=C(C)CCC=C(C)C [Material 628]
  Log of liquid dish neat product liquid-air partition coefficient (Comment Code K/L): K (Log of liquid dish neat product liquid-air partition coefficient greater than or equal to −7)

## CC(=O)OC(C)CC/C=C(\C)CCC=C(C)C (stereo not shown) [Material 890]
  Log of liquid dish neat product liquid-air partition coefficient (Comment Code K/L): K (Log of liquid dish neat product liquid-air partition coefficient greater than or equal to −7)

## CCCCCOC(=O)c1ccccc1 [Material 672]
  Comment Code: Log of liquid dish neat product liquid-air partition coefficient: K (Log of liquid dish neat product liquid-air partition coefficient greater than or equal to −7)

## CC1CCC2C(C)(C)C3CC12CCC3(C)OC=O (stereo not shown) [Material 566]
  Log of liquid dish neat product liquid-air partition coefficient (Comment Code K/L): K (Log of liquid dish neat product liquid-air partition coefficient greater than or equal to −7)
  Comment Code: Log of liquid dish neat product liquid-air partition coefficient: K (Log of liquid dish neat product liquid-air partition coefficient greater than or equal to −7)

## CCC=C(C)C(O)CCCCC (stereo not shown) [Material 1104]
  Log of liquid dish neat product liquid-air partition coefficient (Comment Code K/L): K (Log of liquid dish neat product liquid-air partition coefficient greater than or equal to −7)

## CCCCCCCCCCCCCC#N [Material 38]
[1]
  Log of liquid dish neat product liquid-air partition coefficient (Comment Code K/L): K (Log of liquid dish neat product liquid-air partition coefficient greater than or equal to −7)

## CC1CCCCCCCCCCCCC(=O)C1 (stereo not shown) [Material 206]
[1]
  Log of liquid dish neat product liquid-air partition coefficient (Comment Code K/L): K (Log of liquid dish neat product liquid-air partition coefficient greater than or equal to −7)
  Comment Code: Log of liquid dish neat product liquid-air partition coefficient: K (Log of liquid dish neat product liquid-air partition coefficient greater than or equal to −7)

## C=CCCCCCCCCCO [Material 870]
  Log of liquid dish neat product liquid-air partition coefficient (Comment Code K/L): K (Log of liquid dish neat product liquid-air partition coefficient greater than or equal to −7)

## CC(=O)c1cc(C(C)(C)C)cc2c1CCC2(C)C [Material 563]
  Log of liquid dish neat product liquid-air partition coefficient (Comment Code K/L): K (Log of liquid dish neat product liquid-air partition coefficient greater than or equal to −7)

## CC(O)CCc1ccccc1 (stereo not shown) [Material 98]
[1]
  Log of liquid dish neat product liquid-air partition coefficient (Comment Code K/L): K (Log of liquid dish neat product liquid-air partition coefficient greater than or equal to −7)

## CC1(O)CCC2=C(CCCC2(C)C)C1 (stereo not shown) [Material 675]
  Log of liquid dish neat product liquid-air partition coefficient (Comment Code K/L): K (Log of liquid dish neat product liquid-air partition coefficient greater than or equal to −7)

## O=COCCc1ccccc1 [Material 956]
  Comment Code: Log of liquid dish neat product liquid-air partition coefficient: K (Log of liquid dish neat product liquid-air partition coefficient greater than or equal to −7)

## O=C1CCC=CCCCCCCCCCC1 [Material 372]
[1]
  Log of liquid dish neat product liquid-air partition coefficient (Comment Code K/L): K (Log of liquid dish neat product liquid-air partition coefficient greater than or equal to −7)

## CCCCCC=CC=CC(=O)OCC [Material 951]
  Log of liquid dish neat product liquid-air partition coefficient (Comment Code K/L): K (Log of liquid dish neat product liquid-air partition coefficient greater than or equal to −7)

## CC1=C2CCC(C)C2CC(C(C)(C)O)CC1 (stereo not shown) [Material 920]
  Log of liquid dish neat product liquid-air partition coefficient (Comment Code K/L): K (Log of liquid dish neat product liquid-air partition coefficient greater than or equal to −7)

## C=CC(C)=CCCC(C)(C)O [Material 42]
[1]
  Log of liquid dish neat product liquid-air partition coefficient (Comment Code K/L): K (Log of liquid dish neat product liquid-air partition coefficient greater than or equal to −7)

## c1ccc(Oc2ccccc2)cc1 [Material 428]
[1]
  Log of liquid dish neat product liquid-air partition coefficient (Comment Code K/L): K (Log of liquid dish neat product liquid-air partition coefficient greater than or equal to −7)

## CCCCCCCCCCO [Material 868]
  Log of liquid dish neat product liquid-air partition coefficient (Comment Code K/L): K (Log of liquid dish neat product liquid-air partition coefficient greater than or equal to −7)

## C=CCCC(=O)C1=CCCC2(CCCC2)C1 [Material 1038]
  Log of liquid dish neat product liquid-air partition coefficient (Comment Code K/L): K (Log of liquid dish neat product liquid-air partition coefficient greater than or equal to −7)
  Comment Code: Log of liquid dish neat product liquid-air partition coefficient: K (Log of liquid dish neat product liquid-air partition coefficient greater than or equal to −7)

## CC1=CCC(C=CC(C)C(C)O)C1(C)C (stereo not shown) [Material 416]
[1]
  Log of liquid dish neat product liquid-air partition coefficient (Comment Code K/L): K (Log of liquid dish neat product liquid-air partition coefficient greater than or equal to −7)

## CCCCOC(=O)C(C)OC(=O)CCC (stereo not shown) [Material 595]
  Log of liquid dish neat product liquid-air partition coefficient (Comment Code K/L): K (Log of liquid dish neat product liquid-air partition coefficient greater than or equal to −7)

## CC1=CCC(CCC(C)C(C)O)C1(C)C (stereo not shown) [Material 1023]
  Log of liquid dish neat product liquid-air partition coefficient (Comment Code K/L): K (Log of liquid dish neat product liquid-air partition coefficient greater than or equal to −7)

## CCCCCCCCCC(=O)O [Material 582]
  Log of liquid dish neat product liquid-air partition coefficient (Comment Code K/L): K (Log of liquid dish neat product liquid-air partition coefficient greater than or equal to −7)

## CC1=CC2C(C(C)C)CCC(C)(O)C2CC1 (stereo not shown) [Material 1046]
  Log of liquid dish neat product liquid-air partition coefficient (Comment Code K/L): K (Log of liquid dish neat product liquid-air partition coefficient greater than or equal to −7)

## COc1ccc(C=O)cc1OC [Material 1118]
  Comment Code: Log of liquid dish neat product liquid-air partition coefficient: K (Log of liquid dish neat product liquid-air partition coefficient greater than or equal to −7)

## CCOC(=O)C1CCC(C(=O)OCC)CC1 (stereo not shown) [Material 347]
[1]
  Log of liquid dish neat product liquid-air partition coefficient (Comment Code K/L): K (Log of liquid dish neat product liquid-air partition coefficient greater than or equal to −7)

## C=CC(=C)CCCC(C)(C)OC(C)=O [Material 35]
[1]
  Log of liquid dish neat product liquid-air partition coefficient (Comment Code K/L): K (Log of liquid dish neat product liquid-air partition coefficient greater than or equal to −7)

## CC(C)C(=O)OCc1ccccc1 [Material 647]
  Comment Code: Log of liquid dish neat product liquid-air partition coefficient: K (Log of liquid dish neat product liquid-air partition coefficient greater than or equal to −7)

## CC1=CC2C(C(C)C)CCC(C)(O)C2CC1 (stereo not shown) [Material 1047]
  Log of liquid dish neat product liquid-air partition coefficient (Comment Code K/L): K (Log of liquid dish neat product liquid-air partition coefficient greater than or equal to −7)

## COCCOC(C)OCc1ccccc1 (stereo not shown) [Material 768]
  Log of liquid dish neat product liquid-air partition coefficient (Comment Code K/L): K (Log of liquid dish neat product liquid-air partition coefficient greater than or equal to −7)

## CCCCCCC1C(=O)CCC1C(=O)OC (stereo not shown) [Material 450]
[1]
  Log of liquid dish neat product liquid-air partition coefficient (Comment Code K/L): K (Log of liquid dish neat product liquid-air partition coefficient greater than or equal to −7)

## CC(O)C(C)/C=C1\C[C@H]2C[C@@H]1[C@@H]1C=CC[C@H]21 (stereo partly shown) [Material 359]
[1]
  Log of liquid dish neat product liquid-air partition coefficient (Comment Code K/L): K (Log of liquid dish neat product liquid-air partition coefficient greater than or equal to −7)
  Comment Code: Log of liquid dish neat product liquid-air partition coefficient: K (Log of liquid dish neat product liquid-air partition coefficient greater than or equal to −7)

## N#C/C=C/c1ccccc1 [Material 556]
  Comment Code: Log of liquid dish neat product liquid-air partition coefficient: K (Log of liquid dish neat product liquid-air partition coefficient greater than or equal to −7)

## CCOC(=O)C=Cc1ccccc1 [Material 400]
  Comment Code: Log of liquid dish neat product liquid-air partition coefficient: K (Log of liquid dish neat product liquid-air partition coefficient greater than or equal to −7)

## CCCCCCCC1(C)OCC(C)O1 (stereo not shown) [Material 838]
  Comment Code: Log of liquid dish neat product liquid-air partition coefficient: K (Log of liquid dish neat product liquid-air partition coefficient greater than or equal to −7)

## CC(C)=CCC/C(C)=C/COC=O [Material 306]
  Comment Code: Log of liquid dish neat product liquid-air partition coefficient: K (Log of liquid dish neat product liquid-air partition coefficient greater than or equal to −7)

## CCOC(=O)C12CCCC1C1CCC2C1 (stereo not shown) [Material 344]
[1]
  Log of liquid dish neat product liquid-air partition coefficient (Comment Code K/L): K (Log of liquid dish neat product liquid-air partition coefficient greater than or equal to −7)

## CC(O)CCC1CCCCC1 (stereo not shown) [Material 699]
  Comment Code: Log of liquid dish neat product liquid-air partition coefficient: K (Log of liquid dish neat product liquid-air partition coefficient greater than or equal to −7)

## Cc1cccc(Oc2ccccc2)c1 [Material 114]
[1]
  Log of liquid dish neat product liquid-air partition coefficient (Comment Code K/L): K (Log of liquid dish neat product liquid-air partition coefficient greater than or equal to −7)

## CCCCCCOC(=O)c1ccccc1 [Material 271]
[1]
  Log of liquid dish neat product liquid-air partition coefficient (Comment Code K/L): K (Log of liquid dish neat product liquid-air partition coefficient greater than or equal to −7)

## CC(C)C(=O)OCC=Cc1ccccc1 [Material 550]
[1]
  Log of liquid dish neat product liquid-air partition coefficient (Comment Code K/L): K (Log of liquid dish neat product liquid-air partition coefficient greater than or equal to −7)

## CC(C)=CCC/C(C)=C/CO [Material 1082]
  Log of liquid dish neat product liquid-air partition coefficient (Comment Code K/L): K (Log of liquid dish neat product liquid-air partition coefficient greater than or equal to −7)

## CC(=O)c1oc2ccccc2c1C [Material 61]
[1]
  Log of liquid dish neat product liquid-air partition coefficient (Comment Code K/L): K (Log of liquid dish neat product liquid-air partition coefficient greater than or equal to −7)

## OC1CCC2CCCCC2C1 (stereo not shown) [Material 474]
[1]
  Log of liquid dish neat product liquid-air partition coefficient (Comment Code K/L): K (Log of liquid dish neat product liquid-air partition coefficient greater than or equal to −7)

## CCOCCOCCO [Material 579]
  Comment Code: Log of liquid dish neat product liquid-air partition coefficient: K (Log of liquid dish neat product liquid-air partition coefficient greater than or equal to −7)

## CC1CCOC(c2ccccc2)C1 (stereo not shown) [Material 420]
  Comment Code: Log of liquid dish neat product liquid-air partition coefficient: K (Log of liquid dish neat product liquid-air partition coefficient greater than or equal to −7)

## CC(=O)CCc1ccccc1 [Material 640]
  Comment Code: Log of liquid dish neat product liquid-air partition coefficient: K (Log of liquid dish neat product liquid-air partition coefficient greater than or equal to −7)
